Bounds are passed on as bounds.

`CSc1cn(CC(C)N(O)C(N)=O)c2ccccc12` (configuration not stated) showed a melting point of 87 to 90 °C.

Consider `CC(C)(C(=O)NC(Nc1c(Nc2cccnc2)c(=O)c1=O)C(C)(C)Cc1ccccc1)c1ccccc1` (configuration not stated), for which the melting point fell in the range of 228 to 231 °C.

Regarding `ON=Cc1c(-c2ccccc2F)ccc2c1OCO2`, the melting point is 197 to 198 °C.

In turn, `CCCCN(CCCC)CC(=O)N1c2ccccc2N(CCCC)C(=O)c2cnc(-c3ccccc3)nc21` came in with a melting point of 103 to 104 °C.

With `CCC(O)(C(N)=O)c1cc(C(F)(F)F)cc(C(F)(F)F)c1` (configuration not stated), the melting point lay in the range of 128 to 129 °C.

As for `CCCCc1sc2ccc([N+](=O)[O-])cc2c1C(=O)c1ccc(OCCCN(CCCC)CCCC)cc1`, the melting point stood at 88 °C.

`Cc1noc2cc(N3CCOCC3)ccc12` gave a melting point of 138 to 140 °C.

With `NC(=O)c1ccc2nccn2c1`, the melting point was in the range of 202 to 204 °C.

As to `COC(=O)C(C)(C)S(=O)(=O)N1CCC(c2ccc(Br)c(C)c2)CC1`, the melting point is 103 to 106 °C.

With `O=C(Nc1cccc2c(-n3c(-c4cccnc4)nc4ccccc43)ccnc12)c1c(Cl)cccc1Cl`, the melting point was in the range of 203 to 204 °C.

For `Cc1ccc(C(=O)NC(NC(=NC#N)Nc2cncnc2)C(Cl)(Cl)Cl)cc1` (configuration not stated), the melting point lay within 186 to 188 °C.

The compound `Oc1cccc(CCc2nc(-c3ccsc3)c(-c3ccsc3)o2)c1` registered a melting point of 144 to 145 °C.

In turn, `CCOC(=O)N1CCC(Nc2nc3cccnc3n2Cc2ccco2)CC1` gave a melting point of 149 °C.

Regarding `CC(=O)NNc1nc(C(F)(F)F)nc(-c2ccc(S(C)(=O)=O)cc2)c1-c1ccc(Cl)cc1`, the melting point was 254 to 256 °C.

In turn, `CCCCCCCC(=O)c1cc2sc3sccc3c2s1` returned a melting point of 130 to 131 °C.

As for `C=C(C(=O)c1ccc(C(=O)O)cc1)c1cc(-c2cccs2)ccc1OC`, the melting point was over 250 °C.

For the compound `CCOC(=O)c1cnc2c(O)nccn2c1=O`, the melting point was over 300 °C.

`O=c1[nH]c2nc3ccccc3n2c(=O)n1C1CCCCC1` gave a melting point of 335 °C.

`Nc1ncnc2c1ccn2C1C=CC(CO)C1` (configuration not stated) came in with a melting point of 165 to 168 °C.

The compound `CC(C)(C)c1c(O)[nH]c(=O)[nH]c1=O` had a melting point of 247 to 248 °C.

`O=C(O)Cc1c(C(=O)c2ccccc2)[nH]c2cc(Cl)c(Cl)cc12`: the melting point was 206 to 210 °C.

The compound `Cn1c(=Nc2ccccc2)sc2ncccc2c1=O` displayed a melting point of 189 to 190 °C.

Turning to `O=S1(=O)c2ccccc2-c2[nH]nc(-c3ccccc3)c21`, the melting point was 266 to 268 °C.

`COCCCS(=O)(=O)NC(=O)CC(C)c1ccc(OCCOC)cc1Oc1ncc(C(F)(F)F)cc1Cl` (configuration not stated) came in with a melting point of 107 to 109 °C.

As to `CCOC(=O)CCc1cn(Cc2cccc(C(=O)Nc3cccnc3)c2)nc1-c1ccccc1`, the melting point lay in the range of 111 to 112 °C.

`CN1Cc2c(C#CC3CC3)ncn2-c2cccc(Cl)c2C1=O`: the melting point lay within 177 to 178 °C.

`COc1ccc(CN2CCc3cc(O)c(OC)cc3C2)cc1` returned a melting point of 162 to 163 °C.

Consider `CCCCCOc1cc(C(=O)O)cc([N+](=O)[O-])c1-c1ccccc1`, for which the melting point lay in the range of 144 to 146 °C.

As to `COC(=O)C1=C(C)NC(C(=N)N)=C(C(=O)OC(C)C)C1c1ccccc1[N+](=O)[O-]` (configuration not stated), the melting point came out at 203 °C.

For `CCCCc1nc(Cl)c(C=O)n1Cc1ccc(-c2ccccc2C#N)cc1`, the melting point is 96 to 97 °C.

Turning to `Cc1nc(N2CCN(CC3CC3)C2=O)sc1C(=O)NCc1cccnc1`, the melting point fell in the range of 157 to 158 °C.

Turning to `Cc1ccc(-c2ccc3c(c2)C=C(S(=O)(=O)Cl)CCO3)cc1`, the melting point was 162 to 166 °C.

`NC(=O)c1ccc(NC(=O)C2CCCN(Cc3ccccc3)C2)cc1` (configuration not stated): the melting point was 211 to 212 °C.

The compound `CCN1CCCC1CNC(=O)c1cccc(NC(=O)N2CCc3cc(SC)c(C(F)(F)F)cc32)c1` (configuration not stated) showed a melting point of 174 to 175 °C.

`C=CCSCC(O)(Cn1cncn1)c1ccc(Cl)cc1Cl` (configuration not stated) displayed a melting point of 92 to 94 °C.

For `COC(=O)COc1c2ccccc2cc2c1c1c(C(N)=O)cccc1n2Cc1ccccc1`, the melting point was 120 to 125 °C.

Take `CN(C)CCN(CCN(C)C)c1ccc(-c2nc3ccccc3[nH]2)cc1`: the melting point was 190 to 191 °C.

In the case of `COc1cccc(-c2cc3ccc(C#N)cc3o2)c1`, the melting point was in the range of 148 to 150 °C.

Regarding `N#CC1C=Cc2cc(Cl)ccc2N1C(=O)c1ccccc1` (configuration not stated), the melting point lay within 141 to 143 °C.

In turn, `Cc1cn(S(C)(=O)=O)c2c1C(=O)CC(c1ccccc1)C2` (configuration not stated) registered a melting point of 80 to 83 °C.

As for `CCCCOc1ccc(S(=O)(=O)C2(C(=O)O)CCN(Cc3ccc(OCCN4CCCCC4)cc3)CC2)cc1`, the melting point was 98 °C.

Compound `O=C(O)CCNC(=O)OCC(Cl)(Cl)Cl` came in with a melting point of 89.4 to 91 °C.

As to `O=C1c2ccc([N+](=O)[O-])cc2S(=O)(=O)N1CSc1ccccc1`, the melting point was in the range of 161 to 163 °C.

With `CS(=O)(=O)OC[C@@H]1Cc2cc3ccccc3n2C[C@H]1COS(C)(=O)=O` (relative stereo), the melting point lay in the range of 139 to 141 °C.

`CC(C)Cn1c(CNC(=O)OC(C)(C)C)c(-c2cccc(F)c2)c2cc(C(=O)O)ccc2c1=O` displayed a melting point of 206 to 207 °C.

The compound `CC(C)(C)ONC(=O)Oc1ccccc1` registered a melting point of 124 to 126 °C.

`CNC(=O)N1CC(Oc2cccc(C(F)(F)F)c2)C1` returned a melting point of 145 to 147 °C.

For `O=c1cc2c(n[nH]1)-c1ccccc1SCC2`, the melting point was in the range of 311 to 313 °C.

As for `COc1ccc(CNC(=O)c2cc(C)ccc2N)cc1`, the melting point was in the range of 144 to 145 °C.

`COc1cc(Nc2nc3c(s2)CCCC3c2ccccc2)ccc1C(=O)NN` (configuration not stated) returned a melting point of 297 to 299 °C.

Regarding `CN(c1cccc2cc(C3=NCC(CC(=O)N4CCS(=O)(=O)CC4)S3)[nH]c12)S(=O)(=O)c1cccs1` (configuration not stated), the melting point stood at 158 °C.

In the case of `CC(C)S(=O)(=O)c1ccc2c(c1)nc(CC1CC1)n2CC1CC1`, the melting point worked out at 107 °C.

In turn, `CCc1[nH]c(=S)n(Nc2cccc(C)c2)c1-c1ccccc1` registered a melting point of 202 to 204 °C.

For the compound `CC1(C)OC(=O)Nc2ccc(-c3cc(Br)cc(OC(F)(F)F)c3)cc21`, the melting point is 214 to 216 °C.

Regarding `COC(=O)c1ccc(Cl)cc1NC(=O)CSc1cccc(C)c1`, the melting point lay in the range of 75 to 77 °C.

`COc1ccc(C2SCc3c(sc(N)c3C(=O)c3cccc4ccccc34)S2)cc1` (configuration not stated) registered a melting point of 132 to 134 °C.

Take `COC(=O)c1cc(-c2c[nH]nc2-c2ccc(F)cc2)ccn1`: the melting point was 239 to 241 °C.

`O=C(CCCCl)c1ccc2cc(O)c(O)cc2c1` yielded a melting point of 129 to 135 °C.

As for `CCOC(=O)CN1CCc2c(sc(N)c2C(=O)c2ccc(Cl)cc2)C1`, the melting point is 105 to 106 °C.

As to `COC(=O)c1cc(F)c(OS(=O)(=O)c2c(C)cc(C)cc2C)nc1Nc1ccc(F)cc1F`, the melting point lay within 153 to 155 °C.

The compound `C#CCON=C(C(C)=NOCc1ccccc1C(=COC)C(=O)OC)c1ccccc1` gave a melting point of 163 to 165 °C.

`CC(O)(C(=O)Nc1ccc(C(=O)c2ccccc2)c(F)c1)C(F)(F)F` (configuration not stated) returned a melting point of 132 to 134 °C.

`O=C(O)c1ccc2c(c1)CCN2Cc1cccc([N+](=O)[O-])c1`: the melting point fell in the range of 259 to 262 °C.

With `CCCC(NS(=O)(=O)c1ccc(Cl)cc1)C(=S)Nc1ccc(CC(=O)OCC)cc1` (racemic), the melting point was in the range of 121 to 123 °C.

For `CC(C)(C)Sc1c(CC(C)(C)C(=O)O)n(Cc2ccc(Cl)cc2)c2ccc(OCc3ccc(Cl)s3)cc12`, the melting point lay in the range of 182 to 184 °C.

Compound `CCOC(=O)/C=C/C=C/c1ccc(OCc2ccccc2)c(OC)c1` returned a melting point of 85 to 86 °C.

In turn, `O=C(O)CCCCCn1sc2ccccc2c1=O` returned a melting point of 59 to 61 °C.

As for `Fc1ccc2c(c1)[C@H]1N[C@@H](CNC(c3ccccc3)(c3ccccc3)c3ccccc3)C[C@@H]1c1ccccc1C2`, the melting point fell in the range of 58 to 60 °C.

Take `COc1ccc(S(=O)(=O)C2(CCCC#Cc3ccc(Cl)cc3)SC(=O)NC2=O)cc1` (configuration not stated): the melting point lay in the range of 172 to 174 °C.

`COc1ccc(CBr)cc1-c1nsc2ccc(-n3c(=O)cc(C(F)(F)F)n(C)c3=O)cc12` came in with a melting point of 158 to 160 °C.

On to `CC(=O)Nc1ccc2c(c1)C(=O)N(CCO)CO2`, for which the melting point was in the range of 155 to 156 °C.

In turn, `CNC(=O)Nc1cccc(OC(=O)N(CCC#N)c2ccccc2)c1` displayed a melting point of 147 °C.

`Cc1csc(C2=C(c3ccc(S(C)(=O)=O)cc3)CCC2)c1` came in with a melting point of 138 to 139 °C.

In turn, `CSc1ccc(C2=C(c3cccs3)C(=O)C(C)(C)O2)cc1` yielded a melting point of 113 to 114 °C.

Take `CCC1OC(=O)N(CCc2ccc(NC(=O)c3cccs3)cc2)N=C1c1ccc(OC)c(OC)c1` (configuration not stated): the melting point was found to be 197 °C.

`COC(=O)c1cc(C(F)(F)F)ccc1N` displayed a melting point of 51 to 52 °C.

Regarding `COc1cc(OC)c(C(=O)n2cccc2Br)cc1OC`, the melting point was 120 to 121 °C.

In turn, `O=C1CN=C(c2ccccc2)c2cc(C(=O)c3ccc(Cl)cc3)ccc2N1` gave a melting point of 230 °C.

`Cc1cnccc1C#N` came in with a melting point of 45 to 47 °C.

In the case of `CN(CC(=O)C(Cc1ccccc1)NC(=O)c1ccccc1)C(=O)OC(Cc1ccccc1)C(=O)O` (configuration not stated), the melting point is 52 to 60 °C.

As for `CC1(C)CCN(C(=O)Nc2cccnc2)c2cc(C#N)ccc21`, the melting point lay within 183 to 185 °C.

In the case of `O=C1C(O)=C(c2ccc3ccccc3c2)C(=O)C(O)=C1c1ccc(Cl)cc1`, the melting point lay in the range of 302 to 303 °C.

The compound `CCCCCCOc1ccc(NC(=O)N(C)c2cccc(-c3ccc(CC4SC(=O)NC4=O)cc3)c2)cc1` (configuration not stated) registered a melting point of 146 to 148 °C.

As for `CCOC(=O)C(=CN(C)C)C(=O)c1cc2cc(F)c(F)c(F)c2nc1Cl`, the melting point came to 118 °C.

Turning to `CCCn1c(=O)[nH]c2ccc(C(=O)c3ncc4ccccn34)cc2c1=O`, the melting point was 304 °C.

In the case of `CCOC(=O)c1cn([C@@H]2C[C@@H]2F)c2cc(F)ccc2c1=O`, the melting point fell in the range of 227 to 230 °C.

`Fc1ccc(-c2cc(Cl)nc3ccccc23)cc1` registered a melting point of 118 °C.

Broadly, the melting point is the temperature of the solid-liquid transition.

Source of the values: a melting point compilation (Tetko et al.; mined from patent text by program, amines drawn as free bases though some values may be those of a salt).
